Test results from patent US20240067634A1, “INHIBITORS OF NEF DOWNMODULATION” (priority 2020, published 2024).
Like-named read-outs stand apart in the source and are kept apart here.

System: V-ATPase-dependent lysosomal acidification
Assay: cells
Assay type: cell-based, human
Conditions: read-out: Lyso IC50
Source text: Determine effect on V-ATPase activity: Plecomacrolides are known inhibitors of V-ATPase that neutralize normally acidified lysosomes. […] Thus, analogs of the disclosure are further characterized by measuring their effects on lysosome acidification.
LysoTracker® is a fluorophore linked to a weak base that is partially protonated at neutral pH. This form of the probe is capable of freely permeating cell membranes of live cells. In acidic compartments, protonation creates a form that was impermeable causing the probe to accumulate inside the lysosome.

[1] = Homo sapiens, PBMC, 24 h, 24 hr Lysotracker IC50, 1000 nM set as activity threshold (FIG. 11-14)
[2] = 24 hr Lysotracker IC50, 1000 nM set as activity threshold (FIG. 11-14)

| SMILES | IC50 [1] | IC50 [2] | other results |
| --- | --- | --- | --- |
| C/C=C/CC(=O)O[C@@H]1C[C@](O)([C@@H](C)[C@H](O)[C@H](C)[C@H]2OC(=O)/C(OC)=C/C(C)=C/[C@@H](C)[C@@H](O)[C@@H](C)C/C(C)=C/C=C/[C@@H]2OC)O[C@H](C(C)C)[C@H]1C [21-Penta-3-enoate Baf A1, 21-pent-3-enoate Bafilomycin] | 60.2 nM | – | – |
| CCCCC(=O)O[C@@H]1C[C@](O)([C@@H](C)[C@H](O)[C@H](C)[C@H]2OC(=O)/C(OC)=C/C(C)=C/[C@@H](C)[C@@H](O)[C@@H](C)C/C(C)=C/C=C/[C@@H]2OC)O[C@H](C(C)C)[C@H]1C [21-Pentanoate Baf A1, 21-pentanone Bafilomycin] | 62.3 nM | – | – |
| CO/C1=C\C(C)=C\[C@@H](C)[C@@H](O)[C@@H](C)C/C(C)=C/C=C/[C@H](OC)[C@@H]([C@@H](C)[C@@H](O)[C@H](C)[C@H]2C[C@@H](OC(=O)c3ccc(C4(C(F)(F)F)N=N4)cc3)[C@H](C)[C@@H](C(C)C)O2)OC1=O [21-Y Bafilomycin Probe, 21-(3-(trifluoromethyl)-3H-diazirin-3-yl)benzoate Bafilomycin] | ≥ 1000 nM | – | – |
| C=C/C=C/C(=O)O[C@@H]1C[C@](O)([C@@H](C)[C@H](O)[C@H](C)[C@H]2OC(=O)/C(OC)=C/C(C)=C/[C@@H](C)[C@@H](O)[C@@H](C)C/C(C)=C/C=C/[C@@H]2OC)O[C@H](C(C)C)[C@H]1C [21-penta-2,4-dienoate Baf A1, 21-penta-2,4-dienoate Bafilomycin] | 25.1 nM | – | – |
| C#CCCC(=O)O[C@H]1C[C@@H](O[C@@H]2C[C@](O)([C@@H](C)[C@H](O)[C@H](C)[C@H]3OC(=O)/C(OC)=C/C(C)=C/[C@@H](C)[C@@H](O)[C@@H](CC)[C@@H](O)[C@H](C)C/C(C)=C/C=C/[C@@H]3OC)O[C@H](/C=C/C)[C@H]2C)O[C@@H](C)[C@@H]1OC(N)=O [23-Alkyne CMA, 3′-pent-4-ynoate Concanamycins A-C] | – | 1.1 nM | – |
| C#CCCC(=O)O[C@H]1C[C@@H](O[C@@H]2C[C@](O)([C@@H](C)[C@H](O)[C@H](C)[C@H]3OC(=O)/C(OC)=C/C(C)=C/[C@@H](C)[C@@H](O)[C@@H](C)[C@@H](O)[C@H](C)C/C(C)=C/C=C/[C@@H]3OC)O[C@H](/C=C/C)[C@H]2C)O[C@@H](C)[C@@H]1OC(N)=O [23-Alkyne CMB, 3′-pent-4-ynoate Concanamycins A-C] | 5.75 nM | – | – |
| C#CCCC(=O)O[C@H]1C[C@@H](O[C@@H]2C[C@](O)([C@@H](C)[C@H](O)[C@H](C)[C@H]3OC(=O)/C(OC)=C/C(C)=C/[C@@H](C)[C@@H](O)[C@@H](CC)[C@@H](O)[C@H](C)C/C(C)=C/C=C/[C@@H]3OC)O[C@H](/C=C/C)[C@H]2C)O[C@@H](C)[C@@H]1OC(N)=O [23-Alkyne CMC, 3′-pent-4-ynoate Concanamycins A-C] | – | 5.72 nM | – |
| C#CCCC1(CCC(=O)O[C@H]2C[C@@H](O[C@@H]3C[C@](O)([C@@H](C)[C@H](O)[C@H](C)[C@H]4OC(=O)/C(OC)=C/C(C)=C/[C@@H](C)[C@@H](O)[C@@H](C)[C@@H](O)[C@H](C)C/C(C)=C/C=C/[C@@H]4OC)O[C@H](/C=C/C)[C@H]3C)O[C@@H](C)[C@@H]2OC(N)=O)N=N1 [23-Dual Linear Probe CMB, 3′-(3-(3-(but-3-yn-1-yl)-3H-diazirin-3-yl)propanoate) Concanamycin B] | 23.2 nM | – | – |
| C#CCCC1(CCC(=O)O[C@H]2C[C@@H](O[C@@H]3C[C@](O)([C@@H](C)[C@H](O)[C@H](C)[C@H]4OC(=O)/C(OC)=C/C(C)=C/[C@@H](C)[C@@H](O)[C@@H](CC)[C@@H](O)[C@H](C)C/C(C)=C/C=C/[C@@H]4OC)O[C@H](/C=C/C)[C@H]3C)O[C@@H](C)[C@@H]2OC(N)=O)N=N1 [23-Dual Linear Probe CMC, 3′-(3-(3-(but-3-yn-1-yl)-3H-diazirin-3-yl)propanoate) Concanamycin C] | 4.7 nM | – | – |
| CO/C1=C\C(C)=C\[C@@H](C)[C@@H](O)[C@@H](C)C/C(C)=C/C=C/[C@H](OC)[C@@H]([C@@H](C)[C@@H](O)[C@H](C)[C@@]2(OC)C[C@@H](O)[C@H](C)[C@@H](C(C)C)O2)OC1=O [BafA2, Bafilomycin A2] | 25.3 nM | – | – |
| C/C=C/[C@H]1O[C@@](O)([C@@H](C)[C@H](O)[C@H](C)[C@H]2OC(=O)/C(OC)=C/C(C)=C/[C@@H](C)[C@@H](O)[C@@H](C)[C@@H](O)[C@H](C)C/C(C)=C/C=C/[C@@H]2OC)C[C@@H](O[C@H]2C[C@@H](O)[C@H](OC(N)=O)[C@@H](C)O2)[C@@H]1C [CMB, Concanamycin B, reference compound] | – | 29.6 nM | – |
| C/C=C/[C@H]1O[C@@](O)([C@@H](C)[C@H](O)[C@H](C)[C@H]2OC(=O)/C(OC)=C/C(C)=C/[C@@H](C)[C@@H](O)[C@@H](CC)[C@@H](O)[C@H](C)C/C(C)=C/C=C/[C@@H]2OC)C[C@@H](O[C@H]2C[C@@H](O)[C@H](O)[C@@H](C)O2)[C@@H]1C [CMC, Concanamycin C, reference compound] | – | 2.72 nM | – |
| C/C=C/[C@H]1O[C@@](O)([C@@H](C)[C@H](O)[C@H](C)[C@H]2OC(=O)/C(OC)=C/C(C)=C/[C@@H](C)[C@@H](O)[C@@H](CC)[C@@H](O)[C@H](C)C/C(C)=C/C=C/[C@@H]2OC)C[C@@H](O)[C@@H]1C [CMF, Concanamycin F] | – | – | IC50 (Homo sapiens, PBMC, 24 h): 6.27 nM |
| C#CCCC1(CCC(=O)O[C@H]2C[C@@H](O[C@@H]3C[C@](O)([C@@H](C)[C@H](O)[C@H](C)[C@H]4OC(=O)/C(OC)=C/C(C)=C/[C@@H](C)[C@@H](O)[C@@H](CC)[C@@H](O)[C@H](C)C/C(C)=C/C=C/[C@@H]4OC)O[C@H](/C=C/C)[C@H]3C)O[C@@H](C)[C@@H]2O)N=N1 [Dual Linear Probe CMA, 3′-(3-(3-(but-3-yn-1-yl)-3H-diazirin-3-yl)propanoate) Concanamycin A] | 4.87 nM | – | – |
| CO/C1=C\C(C)=C\C(C)C(O)C(C)C/C(C)=C/C=C/C(OC)C(C(C)C(O)C(C)C2(O)CC(O[C@@H]3O[C@@H](C)[C@H](O)[C@@H](O)[C@H]3OC)C(C)C(C(C)C)O2)OC1=O (stereo partly shown) [Leucanicidin, reference compound] | – | 2.04 nM | – |
| CC=CC=CC1OC(O)(C(C)C(O)C(C)C2OC(=O)C(OC)=CC(C)=CC(C)C(O)C(C)CC(C)=CC=CC2OC)CC(OC2CC(O)C(O)C(C)O2)C1C (stereo not shown) [PC-766B, reference compound] | – | 2.72 nM | – |
